Measurements published in ChEMBL document CHEMBL6096674, “Design, Synthesis, and Anticancer Activity of Drug-like Iron Chelators/G-Quadruplex Binders as Synergic Dual Targeting Agents” (J Med Chem, 2025).
Blank lines part the entries; values can stand above or below the molecule they belong to. Activity calls are given as the source filed them. The calls are words filed in the database; no cut-off is given here.

Columns and labels:
[1] = system: Quadruplex DNA; test: Stabilization of Parallel c-Myc G4-quadruplex DNA (5'-TGAGGGTGGGTAGGGTGGGTAA-3') (unknown origin) assessed as change in melting temperature at 5 equiv. by CD melting based analysis; type: nucleic-acid assay
[2] = system: Quadruplex DNA; test: Stabilization of Hybrid Bcl2 G4-quadruplex DNA (5'-AGGGCGCGGGAGGAAGGGGGCGGGA-3') (unknown origin) assessed as change in melting temperature at 5 equiv. by CD melting based analysis; type: nucleic-acid assay
[3] = system: Hairpin duplex DNA; test: Stabilization of Hairpin duplex DNA (5'-CGCGAATTCGCGTTTCGCGAATTCGCG-3') (unknown origin) assessed as change in melting temperature at 5 equiv. by CD melting based analysis; type: nucleic-acid assay
[4] = system: Quadruplex DNA; test: Stabilization of Parallel c-Kit1 G4-quadruplex DNA (5'-AGGGAGGGCGCTGGGAGGAGGG-3') (unknown origin) assessed as change in melting temperature at 5 equiv. by CD melting based analysis; type: nucleic-acid assay
[5] = system: Quadruplex DNA; test: Stabilization of human Hybrid Tel23 G4-quadruplex DNA (5'-TAGGGTTAGGGTTAGGGTTAGGG-3') assessed as change in melting temperature at 5 equiv. by CD melting based analysis; type: nucleic-acid assay
[6] = system: Quadruplex DNA; test: Stabilization of Parallel c-Kit2 G4-quadruplex DNA (5'-CGGGCGGGCGCTAGGGAGGGT-3') (unknown origin) assessed as change in melting temperature at 5 equiv. by CD melting based analysis; type: nucleic-acid assay
[7] = system: Quadruplex DNA; test: Binding affinity to Bcl-2 G4-quadruplex DNA (5'-AGGGCGCGGGAGGAAGGGGGCGGGA-3') (unknown origin) assessed as perturbations of imino protons of G1,G17 and G21 within 5' G-tetrad with no significant change in aromatic proton regions upto compound:G4 ratio of 6:1 by ID IH NMR analysis; type: nucleic-acid assay
[8] = system: HCT-116; test: Antiproliferative activity against human HCT-116 cells assessed as decrease in cell survival incubated for 48 hrs by MTT assay; type: functional, cell-based; conditions: HCT-116, 48 h
[9] = system: A-375; test: Antiproliferative activity against human A-375 cells assessed as decrease in cell survival incubated for 48 hrs by MTT assay; type: functional, cell-based; conditions: A-375, 48 h
[10] = Metal chelating activity assessed as free Fe2+ chelation by measuring decrease in cellular LIP content at IC50 measured after 48 hrs by red fluorescent probe based fluorescence microscopy
[11] = Metal chelating activity assessed as compound-Fe3+ complex formation at compound:iron concentration ratio of 1:1 and measured in acidic medium
[12] = system: Quadruplex DNA; test: Binding affinity to c-Myc G4-quadruplex DNA (5'-TGAGGGTGGGTAGGGTGGGTAA-3') (unknown origin) assessed as perturbations of aromatic protons of T23, A24 and A25 with no significant change in aromatic protons of loops at compound:G4 ratio of 2:1 by 1D 1H NMR analysis; type: nucleic-acid assay
[13] = biological target: Quadruplex DNA; test: Binding affinity to Cy5-labeled Bcl-2 G4-quadruplex DNA (Cy5-AGGGCGCGGGAGGAAGGGGGCGGGA-3') (unknown origin) assessed as equilibrium dissociation constant measured at 25 degC by microscale thermophoresis analysis; type: nucleic-acid assay
[14] = Metal chelating activity assessed as affinity to Fe3+ at compound:iron concentration ratio of 3:1 and measured at pH 7.4
[15] = system: Quadruplex DNA; test: Binding affinity to Bcl-2 G4-quadruplex DNA (5'-AGGGCGCGGGAGGAAGGGGGCGGGA-3') (unknown origin) assessed as perturbations of imino protons of G7,G19 and G23 within 3' G-tetrad with no significant change in aromatic proton regions upto compound:G4 ratio of 6:1 by ID IH NMR analysis; type: nucleic-acid assay
[16] = biological target: Hairpin duplex DNA; test: Binding affinity to Cy5-labeled Hairpin duplex DNA (Cy5-CGCGAATTCGCGTTTCGCGAATTCGCG-3') (unknown origin) assessed as equilibrium dissociation constant measured at 25 degC by microscale thermophoresis analysis; type: nucleic-acid assay
[17] = Metal chelating activity assessed as compound-Fe3+ complex formation at compound:iron concentration ratio of 2:1 and measured in acidic medium
[18] = system: Quadruplex DNA; test: Binding affinity to c-Myc G4-quadruplex DNA (5'-TGAGGGTGGGTAGGGTGGGTAA-3') (unknown origin) assessed as perturbations of imino protons of G8,G12,G17,G21 within middle G-tetrad at compound:G4 ratio of 2:1 by 1D 1H NMR analysis; type: nucleic-acid assay
[19] = biological target: Quadruplex DNA; test: Binding affinity to Cy5-labeled c-Kit2 G4-quadruplex DNA (Cy5-CGGGCGGGCGCTAGGGAGGGT-3') (unknown origin) assessed as equilibrium dissociation constant measured at 25 degC by microscale thermophoresis analysis; type: nucleic-acid assay
[20] = system: Quadruplex DNA; test: Binding affinity to Bcl-2 G4-quadruplex DNA (5'-AGGGCGCGGGAGGAAGGGGGCGGGA-3') (unknown origin) assessed as perturbations of imino protons of G8,G18 and G22 within middle G-tetrad with no significant change in aromatic proton regions upto compound:G4 ratio of 6:1 by ID IH NMR analysis; type: nucleic-acid assay
[21] = Drug uptake in human Jurkat cells assessed as localization of compound in nuclear and perinuclear region at IC50 incubated for 24 hrs by NucSpot Live 488 probe based fluorescence microscopy; type: ADME, cell-based
[22] = Cytotoxicity against human HaCaT cells assessed as decrease in cell survival incubated for 48 hrs by MTT assay; type: toxicity, cell-based
[23] = system: Jurkat; test: Antiproliferative activity human Jurkat cells assessed as reduction in cell number incubated for 48 hrs by phase contrast light microscopy; type: functional, cell-based; conditions: dose 10-100 µM
[24] = system: Quadruplex DNA; test: Binding affinity to c-Myc G4-quadruplex DNA (5'-TGAGGGTGGGTAGGGTGGGTAA-3') (unknown origin) assessed as perturbations of imino protons of G9,G13,G18,G22 within 3' G-tetrad at compound:G4 ratio of 2:1 by 1D 1H NMR analysis; type: nucleic-acid assay
[25] = system: Jurkat; test: Induction of apoptosis in human Jurkat cells assessed as reduction in Bcl-2 expression at IC50 incubated for 24 to 48 hrs by western blot analysis; type: functional, cell-based; conditions: time 24-48 hrs
[26] = system: Quadruplex DNA; test: Binding affinity to c-Myc G4-quadruplex DNA (5'-TGAGGGTGGGTAGGGTGGGTAA-3') (unknown origin) assessed as perturbations of imino protons of G7,G11,G16,G20 within 5' G-tetrad at compound:G4 ratio of 2:1 by 1D 1H NMR analysis; type: nucleic-acid assay
[27] = biological target: Quadruplex DNA; test: Binding affinity to human Cy5-labeled Tel23 G4-quadruplex DNA (Cy5-TAGGGTTAGGGTTAGGGTTAGGG-3') assessed as equilibrium dissociation constant measured at 25 degC by microscale thermophoresis analysis; type: nucleic-acid assay
[28] = biological target: Quadruplex DNA; test: Binding affinity to Cy5-labeled c-Myc G4-quadruplex DNA (Cy5-TGAGGGTGGGTAGGGTGGGTAA-3') (unknown origin) assessed as equilibrium dissociation constant measured at 25 degC by microscale thermophoresis analysis; type: nucleic-acid assay
[29] = Metal chelating activity assessed as compound-Fe3+ complex formation at compound:iron concentration ratio of 3:1 and measured at pH 6 to 8
[30] = system: MCF7; test: Antiproliferative activity against human MCF7 cells assessed as decrease in cell survival incubated for 48 hrs by MTT assay; type: functional, cell-based; conditions: MCF7, 48 h
[31] = system: Jurkat; test: Antiproliferative activity against human Jurkat cells assessed as decrease in cell survival incubated for 48 hrs by MTT assay; type: functional, cell-based
[32] = system: Jurkat; test: Induction of apoptosis in human Jurkat cells assessed as induction of phosphotidylserine exposure at IC50 incubated for 48 hrs by fluorescence microscopy; type: functional, cell-based

ΔTm [1]: 1.7 °C
ΔTm [2]: -0.5 °C
ΔTm [3]: 2.8 °C
ΔTm [4]: 2.2 °C
ΔTm [5]: 2.3 °C
ΔTm [6]: 5.5 °C
SMILES: O=C(NCCN1CCOCC1)c1ccc2[nH]c(=O)c3cc(=O)c(O)cn3c2c1

ΔTm [1]: 5.9 °C
ΔTm [2]: 13.5 °C
ΔTm [3]: 1.8 °C
ΔTm [4]: 9.3 °C
ΔTm [5]: 4.2 °C
ΔTm [6]: 17.3 °C
SMILES: COc1cn2c(cc1=O)c(=O)[nH]c1ccc(C(=O)NCCCN(C)C)cc12

ΔTm [1]: 7.4 °C
Activity [7]: Active
ΔTm [2]: 8.7 °C
Activity [10]: Active
Activity [11]: Active
Activity [12]: Active
Kd [13]: 0.5 µM
pFe3+ [14]: 16.8
Activity [15]: Active
Kd [16]: > 20 µM
Activity [17]: Active
Activity [18]: Active
Kd [19]: 1.1 µM
Activity [20]: Active
Drug uptake [21]: Active
ΔTm [3]: 1.8 °C
ΔTm [4]: 5.5 °C
ΔTm [5]: 3.8 °C
Activity [24]: Active
Activity [26]: Active
ΔTm [6]: 10.1 °C
Kd [27]: 3.1 µM
Kd [28]: 0.3 µM
Activity [29]: Active
SMILES: CN(C)CCCNC(=O)c1ccc2[nH]c(=O)c3cc(=O)c(O)cn3c2c1
IC50 [8]: > 200 µM
IC50 [9]: > 200 µM
IC50 at 48 h [22]: > 200 µM
Activity [23]: Dose-dependent-effect
Activity [25]: Active
IC50 [30]: > 200 µM
IC50 [31]: 30 µM
Activity [32]: Active

ΔTm [1]: 5 °C
ΔTm [2]: 1.6 °C
ΔTm [3]: 2.5 °C
ΔTm [4]: 3.6 °C
ΔTm [5]: 2.7 °C
ΔTm [6]: 6.6 °C
SMILES: O=C(NCCN1CCCC1)c1ccc2[nH]c(=O)c3cc(=O)c(O)cn3c2c1
